Experimental data: US8304419B2, “Chemical compounds” (priority 2007, dated 2012)
Where a name gives a salt, the structure may show the parent alone.

tested on: HIV wild type (WTRVA); assay: HeLa cell assay, wild type virus (WTRVA); format: cell-based, HIV-1; design: scale not given here; conditions: Human immunodeficiency virus 1, HeLa, HeLa cell assay; read-out: IC50 against WTRVA

| Compound | IC50 [nM] |
| --- | --- |
| CCc1cc(Cl)cc(Oc2c(Cl)ccc(CNC(=O)c3[nH]cnc3Cl)c2F)c1 [Example 290, 4-chloro-N-({4-chloro-3-[(3-chloro-5-ethylphenyl)oxy]-2-fluorophenyl}methyl)-1H-imidazole-5-carboxamide] | < 10 |
| N#Cc1cc(CC2CC2)cc(Oc2c(Cl)ccc(CNC(=O)c3[nH]cnc3Cl)c2F)c1 [Example 157, 4-chloro-N-[(4-chloro-3-{[3-cyano-5-(cyclopropylmethyl)phenyl]oxy}-2-fluorophenyl)methyl]-1H-imidazole-5-carboxamide] | < 10 |
| N#Cc1cc(Cl)cc(Oc2c(Br)ccc(CNC(=O)c3[nH]cnc3Cl)c2F)c1 [Example 378, N-({4-bromo-3-[(3-chloro-5-cyanophenyl)oxy]-2-fluorophenyl}methyl)-4-chloro-1H-imidazole-5-carboxamide] | < 10 |
| Cc1cc(C#N)cc(Oc2c(Cl)ccc(CNC(=O)c3[nH]c(C)nc3Cl)c2F)n1 [Example 271, 4-Chloro-N-({4-chloro-3-[(4-cyano-6-methyl-2-pyridinyl)oxy]-2-fluorophenyl}methyl)-2-methyl-1H-imidazole-5-carboxamide] | < 10 |
| N#Cc1cc(Cl)cc(Oc2c(Cl)ccc(Cn3cnc4nc[nH]c4c3=O)c2F)c1 [Example 368, 3-chloro-5-({6-chloro-2-fluoro-3-[(6-oxo-6,7-dihydro-1H-purin-1-yl)methyl]phenyl}oxy)benzonitrile trifluoroacetate] | < 10 |
| C[C@@H](O)C#Cc1cc(Cl)cc(Oc2c(Cl)ccc(CNC(=O)c3[nH]cnc3Cl)c2F)c1 [Example 319, 4-chloro-N-{[4-chloro-3-({3-chloro-5-[(3R)-3-hydroxy-1-butyn-1-yl]phenyl}oxy)-2-fluorophenyl]methyl}-1H-imidazole-5-carboxamide] | < 10 |
| CCc1cc(C#N)cc(Oc2c(Cl)ccc(CNC(=O)c3[nH]cnc3Cl)c2F)c1 [Example 148, 4-chloro-N-({4-chloro-3-[(3-cyano-5-ethylphenyl)oxy]-2-fluorophenyl}methyl)-1H-imidazole-5-carboxamide] | < 10 |

same assay, conditions: Human immunodeficiency virus 1, HeLa, HeLa-CD4-LTR-β-gal cells, wild type virus; read-out: WTRVA activity level

| Compound | IC50 [nM] |
| --- | --- |
| N#Cc1cc(Cl)cc(Oc2c(Cl)ccc(CNC(=O)c3cc4ccc(OCCO)cc4[nH]3)c2F)c1 [Example 142, N-({4-chloro-3-[(3-chloro-5-cyanophenyl)oxy]-2-fluorophenyl}methyl)-6-[(2-hydroxyethyl)oxy]-1H-indole-2-carboxamide] | < 10 |
| COc1ccc2cc(C(=O)NCc3ccc(Cl)c(Oc4cc(Cl)cc(C#N)c4)c3F)[nH]c2c1 [Example 21, N-({4-chloro-3-[(3-chloro-5-cyanophenyl)oxy]-2-fluorophenyl}methyl)-6-(methyloxy)-1H-indole-2-carboxamide] | 10 to 1000 |
| N#Cc1cc(Cl)cc(Oc2c(Cl)ccc(CNC(=O)c3cc4cc(OC[C@H]5CNCCO5)ccc4[nH]3)c2F)c1 [Example 24, N-({4-Chloro-3-[(3-chloro-5-cyanophenyl)oxy]-2-fluorophenyl}methyl)-5-{[(2R)-2-morpholinylmethyl]oxy}-indole-2-carboxamide] | < 10 |
| Cc1nc(Br)c(C(=O)NCc2ccc(Cl)c(Oc3cc(Cl)cc(C#N)c3)c2F)[nH]1 [Example 134, 4-bromo-N-({4-chloro-3-[(3-chloro-5-cyanophenyl)oxy]-2-fluorophenyl}methyl)-2-methyl-1H-imidazole-5-carboxamide] | < 10 |
| N#Cc1cc(Cl)cc(Oc2c(Cl)ccc(CNC(=O)c3cc4cc(NC(=O)[C@@H]5CCCN5)ccc4[nH]3)c2F)c1 [Example 118, N-({4-chloro-3-[(3-chloro-5-cyanophenyl)oxy]-2-fluorophenyl}methyl)-5-(L-prolylamino)-1H-indole-2-carboxamide trifluoroacetate] | < 10 |
| N#Cc1cc(Cl)cc(Oc2c(Cl)ccc(CNC(=O)c3cc4ccccc4[nH]3)c2F)c1 [Example 28, N-({4-chloro-3-[(3-chloro-5-cyanophenyl)oxy]-2-fluorophenyl}methyl)-1H-indole-2-carboxamide] | < 10 |
| N#Cc1cc(Cl)cc(Oc2c(Cl)ccc(CNC(=O)c3cc4cc(Br)ccc4[nH]3)c2F)c1 [Example 29, 5-bromo-N-({4-chloro-3-[(3-chloro-5-cyanophenyl)oxy]-2-fluorophenyl}methyl)-1H-indole-2-carboxamide] | 10 to 1000 |
| N#Cc1cc(Cl)cc(Oc2c(Cl)ccc(CNC(=O)c3cc4ccc(N)cc4[nH]3)c2F)c1 [Example 123, 6-amino-N-({4-chloro-3-[(3-chloro-5-cyanophenyl)oxy]-2-fluorophenyl}methyl)-1H-indole-2-carboxamide trifluoroacetate] | < 10 |
| N#Cc1cc(Cl)cc(Oc2c(Cl)ccc(CNC(=O)c3[nH]c4ccccc4c3Cl)c2F)c1 [Example 75, 3-chloro-N-({4-chloro-3-[(3-chloro-5-cyanophenyl)oxy]-2-fluorophenyl}methyl)-1H-indole-2-carboxamide trifluoroacetate] | < 10 |
| CC(C)(C)OC(=O)Nc1cccc2cc(C(=O)NCc3ccc(Cl)c(Oc4cc(Cl)cc(C#N)c4)c3F)[nH]c12 [Example 112, 1,1-dimethylethyl (2-{[({4-chloro-3-[(3-chloro-5-cyanophenyl)oxy]-2-fluorophenyl}methyl)amino]carbonyl}-1H-indol-7-yl)carbamate] | 10 to 1000 |
